In patent US11446287B2, “Compounds and methods for EP300 or CBP modulation and indications therefor” (Opna Immuno-Oncology SA, priority 2019, dated 2022):

Molecular target: T1, Recombinant human BRD4 containing dual bromodomains (BRD4-BD12 (1-477)) (Homo sapiens, UniProt O60885)
T1 construct: Recombinant human BRD4 containing dual bromodomains (BRD4-BD12 (1-477)); made in house; host or cells: E. coli BL21-CodonPlus (DE3), modified pET vector
Assay: BRD4 Alphascreen binding assay
How it was run: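 His-tagged human BRD4 tandem bromodomains (1-477, E. coli) incubated 1 h at room temperature with biotinylated tetra-acetylated H4 (1-21) peptide and compound in HEPES pH 7.5 buffer with 2 mM DTT. AlphaScreen signal read 30 min after adding beads (7.5 μg/ml); IC50 from four-parameter fit after normalization to controls.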

`Cc1noc(C)c1-c1cnc2c(c1)c(-c1ccc(C(=O)O)cc1OC(F)(F)F)cn2[C@@H]1CCOC1` [P-0286, (R)-4-(5-(3,5-dimethylisoxazol-4-yl)-1-(tetrahydrofuran-3-yl)-1H-pyrrolo[2,3-b]pyridin-3-yl)-3-(trifluoromethoxy)benzoic acid] and `Cc1noc(C)c1-c1cnc2c(c1)c(-c1ccc(C(=O)O)cc1OC(F)(F)F)cn2C1CCNCC1` [P-0290, 4-(5-(3,5-dimethylisoxazol-4-yl)-1-(piperidin-4-yl)-1H-pyrrolo[2,3-b]pyridin-3-yl)-3-(trifluoromethoxy)benzoic acid] fall in the same range of IC50: 8 to 1000 µM for the first, 8 to 1000 µM for the second.

First: Cc1noc(C)c1-c1cnc2c(c1)c(-c1ccc(C(=O)O)cc1OC(F)(F)F)cn2-c1ccncc1F [P-0293, 4-(5-(3,5-dimethylisoxazol-4-yl)-1-(3-fluoropyridin-4-yl)-1H-pyrrolo[2,3-b]pyridin-3-yl)-3-(trifluoromethoxy)benzoic acid]
Second: Cc1noc(C)c1-c1cnc2c(c1)c(-c1ccc(C(=O)O)cc1OC(F)(F)F)cn2-c1cnccc1F [P-0251, 4-(5-(3,5-dimethylisoxazol-4-yl)-1-(4-fluoropyridin-3-yl)-1H-pyrrolo[2,3-b]pyridin-3-yl)-3-(trifluoromethoxy)benzoic acid]
The IC50 of the first is lower: 1 to 8 µM for the first, 8 to 1000 µM for the second. The first is the more potent here.

First: Cc1noc(C)c1-c1cnc2c(c1)c(-c1ccc(C(=O)O)cc1OC(F)(F)F)cn2-c1ccc(C(C)(C)O)cc1 [P-0314, 4-(5-(3,5-dimethylisoxazol-4-yl)-1-(4-(2-hydroxypropan-2-yl)phenyl)-1H-pyrrolo[2,3-b]pyridin-3-yl)-3-(trifluoromethoxy)benzoic acid]
Second: Cc1noc(C)c1-c1cnc2c(c1)c(-c1ccc(C(=O)O)cc1OC(F)(F)F)cn2-c1ccccc1C#N [P-0309, 4-(1-(2-cyanophenyl)-5-(3,5-dimethylisoxazol-4-yl)-1H-pyrrolo[2,3-b]pyridin-3-yl)-3-(trifluoromethoxy)benzoic acid]
The IC50 of the first is lower: 0.0001 to 1 µM for the first, 8 to 1000 µM for the second. The first is the more potent here.

First: Cc1noc(C)c1-c1cnc2c(c1)c(-c1ccc3c(c1)CNC3=O)cn2C(c1ccccn1)C1CCCC1 (stereo not drawn) [P-0023, 5-(1-(cyclopentyl(pyridin-2-yl)methyl)-5-(3,5-dimethylisoxazol-4-yl)-1H-pyrrolo[2,3-b]pyridin-3-yl)isoindolin-1-one]
Second: Cc1noc(C)c1-c1cnc2c(c1)c(-c1ccc(C#N)cc1)cn2C(c1ccccn1)C1CCCC1 (stereo not drawn) [P-0022, 4-(1-(cyclopentyl(pyridin-2-yl)methyl)-5-(3,5-dimethylisoxazol-4-yl)-1H-pyrrolo[2,3-b]pyridin-3-yl)benzonitrile]
The IC50 of the first is lower: 1 to 8 µM for the first, 8 to 1000 µM for the second. The first is the more potent here.

`Cc1noc(C)c1-c1cnc2c(c1)c(-c1cc(C(=O)O)ccc1OC(F)(F)F)cn2-c1ccc(F)cc1F` [P-0268, 3-(1-(2,4-difluorophenyl)-5-(3,5-dimethylisoxazol-4-yl)-1H-pyrrolo[2,3-b]pyridin-3-yl)-4-(trifluoromethoxy)benzoic acid] and `Cc1noc(C)c1-c1cnc2c(c1)c(-c1ccc(C(=O)O)cc1OC(F)(F)F)cn2-c1ccccc1C1CC1` [P-0308, 4-(1-(2-cyclopropylphenyl)-5-(3,5-dimethylisoxazol-4-yl)-1H-pyrrolo[2,3-b]pyridin-3-yl)-3-(trifluoromethoxy)benzoic acid] fall in the same range of IC50: 1 to 8 µM for the first, 1 to 8 µM for the second.

`Cc1noc(C)c1-c1cnc2c(c1)c(-c1ccc(C(=O)O)cc1OCC(F)F)cn2-c1ccccc1` [P-0277, 3-(2,2-difluoroethoxy)-4-(5-(3,5-dimethylisoxazol-4-yl)-1-phenyl-1H-pyrrolo[2,3-b]pyridin-3-yl)benzoic acid] and `Cc1noc(C)c1-c1cnc2c(c1)c(-c1ccc(C(=O)O)cc1OCC(F)(F)F)cn2-c1ccccc1` [P-0278, 4-(5-(3,5-dimethylisoxazol-4-yl)-1-phenyl-1H-pyrrolo[2,3-b]pyridin-3-yl)-3-(2,2,2-trifluoroethoxy)benzoic acid] fall in the same range of IC50: 1 to 8 µM for the first, 1 to 8 µM for the second.

`Cc1noc(C)c1-c1cnc2c(-c3cccc(C(=O)O)c3C)c(C(F)(F)F)n([C@@H](C)c3ccccn3)c2c1` [P-0246, (S)-3-(6-(3,5-dimethylisoxazol-4-yl)-1-(1-(pyridin-2-yl)ethyl)-2-(trifluoromethyl)-1H-pyrrolo[3,2-b]pyridin-3-yl)-2-methylbenzoic acid] and `Cc1noc(C)c1-c1cnc2c(-c3cccc(C(=O)O)c3F)c(C(F)(F)F)n([C@@H](C)c3ccccn3)c2c1` [P-0245, (S)-3-(6-(3,5-dimethylisoxazol-4-yl)-1-(1-(pyridin-2-yl)ethyl)-2-(trifluoromethyl)-1H-pyrrolo[3,2-b]pyridin-3-yl)-2-fluorobenzoic acid] fall in the same range of IC50: 8 to 1000 µM for the first, 8 to 1000 µM for the second.

`Cc1noc(C)c1-c1cnc2c(c1)c(-c1cnn(CC(=O)O)c1)cn2C(C1CC1)C1CC1` [P-0280, 2-(4-(1-(dicyclopropylmethyl)-5-(3,5-dimethylisoxazol-4-yl)-1H-pyrrolo[2,3-b]pyridin-3-yl)-1H-pyrazol-1-yl)acetic acid] and `Cc1noc(C)c1-c1cnc2c(c1)c(-c1cc(C(=O)O)ccc1OC(F)(F)F)cn2C(C1CC1)C1CC1` [P-0284, 3-(1-(dicyclopropylmethyl)-5-(3,5-dimethylisoxazol-4-yl)-1H-pyrrolo[2,3-b]pyridin-3-yl)-4-(trifluoromethoxy)benzoic acid] fall in the same range of IC50: 8 to 1000 µM for the first, 8 to 1000 µM for the second.

`CCOc1cc(C(=O)O)cc(OCC)c1-n1cc(-c2cnn(CCN(C)C)c2)c2ncc(-c3c(C)noc3C)cc21` [P-0262, 4-(3-(1-(2-(dimethylamino)ethyl)-1H-pyrazol-4-yl)-6-(3,5-dimethylisoxazol-4-yl)-1H-pyrrolo[3,2-b]pyridin-1-yl)-3,5-diethoxybenzoic acid] and `CCOc1cc(C(=O)O)cc(OCC)c1-n1cc(-c2cn(C)nc2C)c2ncc(-c3c(C)noc3C)cc21` [P-0263, 4-(3-(1,3-dimethyl-1H-pyrazol-4-yl)-6-(3,5-dimethylisoxazol-4-yl)-1H-pyrrolo[3,2-b]pyridin-1-yl)-3,5-diethoxybenzoic acid] fall in the same range of IC50: 1 to 8 µM for the first, 1 to 8 µM for the second.

Compared with `Cc1noc(C)c1-c1cnc2c(c1)c(-c1c(Cl)cc(C(=O)O)cc1OC(C)C)cn2C(C1CC1)C1CC1` [P-0283, 3-chloro-4-(1-(dicyclopropylmethyl)-5-(3,5-dimethylisoxazol-4-yl)-1H-pyrrolo[2,3-b]pyridin-3-yl)-5-isopropoxybenzoic acid], `Cc1noc(C)c1-c1cnc2c(c1)c(-c1ccc(C(=O)O)cc1OC(C)C)cn2[C@H]1CCOC1` [P-0301, (S)-4-(5-(3,5-dimethylisoxazol-4-yl)-1-(tetrahydrofuran-3-yl)-1H-pyrrolo[2,3-b]pyridin-3-yl)-3-isopropoxybenzoic acid] is higher in IC50: 1 to 8 µM for the first, 8 to 1000 µM for the second.

`CCOc1c(F)c(C(=O)O)c(F)c(OCC)c1-c1cn(-c2ccc(F)cc2F)c2ncc(-c3c(C)noc3C)cc12` [P-0296, 4-(1-(2,4-difluorophenyl)-5-(3,5-dimethylisoxazol-4-yl)-1H-pyrrolo[2,3-b]pyridin-3-yl)-3,5-diethoxy-2,6-difluorobenzoic acid] and `CCOc1cc(OC)c(C(=O)O)cc1-c1cn(-c2ccc(F)cc2F)c2ncc(-c3c(C)noc3C)cc12` [P-0250, 5-(1-(2,4-difluorophenyl)-5-(3,5-dimethylisoxazol-4-yl)-1H-pyrrolo[2,3-b]pyridin-3-yl)-4-ethoxy-2-methoxybenzoic acid] fall in the same range of IC50: 8 to 1000 µM for the first, 8 to 1000 µM for the second.

`CCOc1cc(C(=O)O)ncc1-c1cn(-c2ccc(F)cc2F)c2ncc(-c3c(C)noc3C)cc12` [P-0295, 5-(1-(2,4-difluorophenyl)-5-(3,5-dimethylisoxazol-4-yl)-1H-pyrrolo[2,3-b]pyridin-3-yl)-4-ethoxypicolinic acid] and `CCn1cc(-n2cc(-c3ccc(C(=O)O)cc3OC(F)(F)F)c3cc(-c4c(C)noc4C)cnc32)c(C)n1` [P-0287, 4-(5-(3,5-dimethylisoxazol-4-yl)-1-(1-ethyl-3-methyl-1H-pyrazol-4-yl)-1H-pyrrolo[2,3-b]pyridin-3-yl)-3-(trifluoromethoxy)benzoic acid] fall in the same range of IC50: 1 to 8 µM for the first, 1 to 8 µM for the second.

`CCOc1cc(C(=O)O)cc(OCC)c1-n1cc(-c2cn(C(C)C)nc2C)c2ncc(-c3c(C)noc3C)cc21` [P-0259, 4-(6-(3,5-dimethylisoxazol-4-yl)-3-(1-isopropyl-3-methyl-1H-pyrazol-4-yl)-1H-pyrrolo[3,2-b]pyridin-1-yl)-3,5-diethoxybenzoic acid] and `Cc1noc(C)c1-c1cnc2c(c1)c(-c1ccc(C(=O)O)cc1OC(C)C)cn2-c1cnn(CC(C)(C)O)c1` [P-0299, 4-(5-(3,5-dimethylisoxazol-4-yl)-1-(1-(2-hydroxy-2-methylpropyl)-1H-pyrazol-4-yl)-1H-pyrrolo[2,3-b]pyridin-3-yl)-3-isopropoxybenzoic acid] fall in the same range of IC50: 1 to 8 µM for the first, 1 to 8 µM for the second.

First: Cc1noc(C)c1-c1cnc2c(c1)c(-c1ccc(S(C)(=O)=O)cc1OC(C)C)cn2-c1ccccc1 [P-0302, 4-(3-(2-isopropoxy-4-(methylsulfonyl)phenyl)-1-phenyl-1H-pyrrolo[2,3-b]pyridin-5-yl)-3,5-dimethylisoxazole]
Second: Cc1noc(C)c1-c1cnc2c(c1)c(-c1ccc(C(=O)O)cc1OC(F)(F)F)cn2-c1cnn(C(F)F)c1C [P-0289, 4-(1-(1-(difluoromethyl)-5-methyl-1H-pyrazol-4-yl)-5-(3,5-dimethylisoxazol-4-yl)-1H-pyrrolo[2,3-b]pyridin-3-yl)-3-(trifluoromethoxy)benzoic acid]
The IC50 of the first is higher: 8 to 1000 µM for the first, 1 to 8 µM for the second.

`CNC(=O)c1ccc(-c2cn(C(c3ccccn3)C3CCCC3)c3ncc(-c4c(C)noc4C)cc23)cc1` (stereo not drawn) [P-0021, 4-(1-(cyclopentyl(pyridin-2-yl)methyl)-5-(3,5-dimethylisoxazol-4-yl)-1H-pyrrolo[2,3-b]pyridin-3-yl)-N-methylbenzamide] and `COc1cc(-c2c(C(F)(F)F)n([C@@H](C)c3ccccn3)c3cc(-c4c(C)noc4C)cnc23)ccc1C(=O)O` [P-0244, (S)-4-(6-(3,5-dimethylisoxazol-4-yl)-1-(1-(pyridin-2-yl)ethyl)-2-(trifluoromethyl)-1H-pyrrolo[3,2-b]pyridin-3-yl)-2-methoxybenzoic acid] fall in the same range of IC50: 1 to 8 µM for the first, 1 to 8 µM for the second.
